Results published in ChEMBL document CHEMBL5465560, “Selectivity Literature for EUbOPEN Chemogenomic Library” (2024).

Legend:
[1] = target: T1, Protein arginine N-methyltransferase 9 (Homo sapiens, UniProt Q6P2P2); test: Selectivity interaction (Scintillation proximity assays) EUB0000255b PRMT9
T1 sequence (Q6P2P2 whole entry): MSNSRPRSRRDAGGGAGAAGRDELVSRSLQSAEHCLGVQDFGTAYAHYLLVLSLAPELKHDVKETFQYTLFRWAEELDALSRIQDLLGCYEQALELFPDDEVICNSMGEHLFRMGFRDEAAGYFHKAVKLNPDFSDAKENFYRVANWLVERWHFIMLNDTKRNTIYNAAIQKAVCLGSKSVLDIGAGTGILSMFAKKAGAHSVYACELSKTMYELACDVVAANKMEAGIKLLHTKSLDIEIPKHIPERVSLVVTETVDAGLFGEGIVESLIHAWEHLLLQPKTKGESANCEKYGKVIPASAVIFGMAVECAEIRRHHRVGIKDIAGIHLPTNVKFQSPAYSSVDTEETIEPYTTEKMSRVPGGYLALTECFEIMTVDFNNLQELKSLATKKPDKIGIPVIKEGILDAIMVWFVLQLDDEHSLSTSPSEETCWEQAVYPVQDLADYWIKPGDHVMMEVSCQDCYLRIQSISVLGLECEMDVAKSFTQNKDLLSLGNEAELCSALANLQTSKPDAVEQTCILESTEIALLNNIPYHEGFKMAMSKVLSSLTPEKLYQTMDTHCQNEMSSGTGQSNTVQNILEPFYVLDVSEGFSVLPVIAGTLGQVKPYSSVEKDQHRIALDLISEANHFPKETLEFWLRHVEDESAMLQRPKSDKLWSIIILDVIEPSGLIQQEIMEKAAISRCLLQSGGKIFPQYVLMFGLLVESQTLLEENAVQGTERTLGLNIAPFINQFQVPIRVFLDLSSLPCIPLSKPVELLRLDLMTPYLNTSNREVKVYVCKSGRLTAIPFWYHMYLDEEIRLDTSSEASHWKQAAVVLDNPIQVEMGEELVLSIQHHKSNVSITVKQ

[2] = target: Receptor tyrosine-protein kinase erbB-4 (Homo sapiens, UniProt Q15303); test: Selectivity interaction (KinomeScan (DiscoverX)) EUB0000092b ERBB4; conditions: at 10 µM
[3] = target: T2, Tyrosine-protein kinase ITK/TSK (Homo sapiens) (UniProt Q08881); test: Selectivity interaction (KinomeScan (DiscoverX)) EUB0001079a ITK; conditions: at 1 µM
T2 sequence (whole entry): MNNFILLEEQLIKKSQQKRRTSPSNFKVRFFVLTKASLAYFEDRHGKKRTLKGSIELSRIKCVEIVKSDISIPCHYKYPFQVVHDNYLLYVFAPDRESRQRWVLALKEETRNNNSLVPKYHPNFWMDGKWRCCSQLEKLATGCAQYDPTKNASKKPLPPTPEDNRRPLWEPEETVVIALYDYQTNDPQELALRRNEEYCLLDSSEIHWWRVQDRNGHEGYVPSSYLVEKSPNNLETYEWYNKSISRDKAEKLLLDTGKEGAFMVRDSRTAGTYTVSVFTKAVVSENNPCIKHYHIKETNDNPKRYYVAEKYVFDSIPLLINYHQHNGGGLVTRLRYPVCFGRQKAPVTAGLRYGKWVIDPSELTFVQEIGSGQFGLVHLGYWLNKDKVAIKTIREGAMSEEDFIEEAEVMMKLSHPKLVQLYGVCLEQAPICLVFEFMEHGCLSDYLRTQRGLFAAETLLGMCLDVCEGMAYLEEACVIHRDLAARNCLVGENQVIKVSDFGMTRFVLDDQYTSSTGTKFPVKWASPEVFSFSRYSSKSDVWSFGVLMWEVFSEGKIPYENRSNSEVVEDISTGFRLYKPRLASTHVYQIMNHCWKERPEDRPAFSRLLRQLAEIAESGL

[4] = target: Fibroblast growth factor receptor 1 (Homo sapiens, UniProt P11362); conditions: at 10 µM
[5] = target: Hepatocyte growth factor receptor (Homo sapiens, UniProt P08581); test: Selectivity interaction (Rxn Biology Kinase assay) EUB0001632a MET; conditions: at 10 µM
[6] = target: LIM domain kinase 1 (Homo sapiens) (UniProt P53667); test: Selectivity interaction (LanthaScreen Eu Kinase Binding Assay) EUB0001632a LIMK1; conditions: at 10 µM
[7] = target: T3, cGMP-dependent protein kinase 1 (Homo sapiens) (UniProt Q13976); test: Selectivity interaction (KinomeScan (DiscoverX)) EUB0000618a PRKG1; conditions: at 10 µM
T3 sequence (whole entry): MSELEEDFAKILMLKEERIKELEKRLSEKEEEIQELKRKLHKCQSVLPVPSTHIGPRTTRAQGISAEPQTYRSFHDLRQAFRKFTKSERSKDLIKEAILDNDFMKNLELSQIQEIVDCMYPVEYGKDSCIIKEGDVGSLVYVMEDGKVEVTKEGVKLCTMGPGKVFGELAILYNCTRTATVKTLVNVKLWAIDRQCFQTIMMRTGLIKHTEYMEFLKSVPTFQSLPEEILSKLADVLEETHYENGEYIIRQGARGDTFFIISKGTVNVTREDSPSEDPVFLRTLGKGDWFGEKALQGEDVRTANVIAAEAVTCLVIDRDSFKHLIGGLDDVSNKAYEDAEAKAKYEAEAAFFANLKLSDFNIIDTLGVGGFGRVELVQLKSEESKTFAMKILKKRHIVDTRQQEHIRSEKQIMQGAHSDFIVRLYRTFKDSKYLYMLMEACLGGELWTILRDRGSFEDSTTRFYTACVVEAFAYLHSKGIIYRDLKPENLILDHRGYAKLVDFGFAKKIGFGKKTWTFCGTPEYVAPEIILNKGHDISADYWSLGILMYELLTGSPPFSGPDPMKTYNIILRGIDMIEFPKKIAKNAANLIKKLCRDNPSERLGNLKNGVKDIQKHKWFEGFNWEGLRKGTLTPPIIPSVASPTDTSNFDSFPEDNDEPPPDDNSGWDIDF

[8] = target: Tyrosine-protein kinase Lyn (Homo sapiens, UniProt P07948); test: Selectivity interaction (Kinase screening (Upstate/Millipore)) EUB0000604a LYN
Tyrosine-protein kinase Lyn, sequence (P07948 2-512 limits assumed): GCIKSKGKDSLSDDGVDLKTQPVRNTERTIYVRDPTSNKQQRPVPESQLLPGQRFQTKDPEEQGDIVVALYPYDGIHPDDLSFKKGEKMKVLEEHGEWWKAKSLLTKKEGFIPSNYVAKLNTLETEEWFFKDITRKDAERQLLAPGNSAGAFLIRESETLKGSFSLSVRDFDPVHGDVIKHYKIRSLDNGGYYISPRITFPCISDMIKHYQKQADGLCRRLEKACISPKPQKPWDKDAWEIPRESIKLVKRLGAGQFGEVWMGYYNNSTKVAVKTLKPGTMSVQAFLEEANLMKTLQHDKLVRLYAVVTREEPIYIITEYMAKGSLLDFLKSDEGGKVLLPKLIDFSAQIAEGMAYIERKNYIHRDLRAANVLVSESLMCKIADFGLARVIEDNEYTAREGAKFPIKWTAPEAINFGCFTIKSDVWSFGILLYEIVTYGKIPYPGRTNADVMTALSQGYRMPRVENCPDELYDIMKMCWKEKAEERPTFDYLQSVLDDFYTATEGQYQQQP

LIM domain kinase 1 (Homo sapiens), sequence (P53667 whole entry, looked up, the tested form may be a part): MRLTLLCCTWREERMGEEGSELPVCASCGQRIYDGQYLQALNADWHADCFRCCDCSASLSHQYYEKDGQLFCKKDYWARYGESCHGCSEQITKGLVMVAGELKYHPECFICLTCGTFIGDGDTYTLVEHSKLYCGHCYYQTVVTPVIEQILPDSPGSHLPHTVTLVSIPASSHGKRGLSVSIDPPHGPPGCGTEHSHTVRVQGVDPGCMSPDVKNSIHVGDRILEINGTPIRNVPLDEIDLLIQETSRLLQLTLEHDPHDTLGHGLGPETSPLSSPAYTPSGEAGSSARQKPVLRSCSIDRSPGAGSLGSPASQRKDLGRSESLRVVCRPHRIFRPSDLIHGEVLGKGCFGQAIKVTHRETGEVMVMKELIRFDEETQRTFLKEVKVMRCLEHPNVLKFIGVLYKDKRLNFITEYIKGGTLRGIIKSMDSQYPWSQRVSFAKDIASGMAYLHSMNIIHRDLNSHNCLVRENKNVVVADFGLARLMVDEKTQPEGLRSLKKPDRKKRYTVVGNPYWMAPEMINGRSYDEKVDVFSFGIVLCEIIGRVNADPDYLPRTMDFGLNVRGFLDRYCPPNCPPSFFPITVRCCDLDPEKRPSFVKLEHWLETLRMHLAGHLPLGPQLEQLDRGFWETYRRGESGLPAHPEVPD
Receptor tyrosine-protein kinase erbB-4, sequence (Q15303 whole entry): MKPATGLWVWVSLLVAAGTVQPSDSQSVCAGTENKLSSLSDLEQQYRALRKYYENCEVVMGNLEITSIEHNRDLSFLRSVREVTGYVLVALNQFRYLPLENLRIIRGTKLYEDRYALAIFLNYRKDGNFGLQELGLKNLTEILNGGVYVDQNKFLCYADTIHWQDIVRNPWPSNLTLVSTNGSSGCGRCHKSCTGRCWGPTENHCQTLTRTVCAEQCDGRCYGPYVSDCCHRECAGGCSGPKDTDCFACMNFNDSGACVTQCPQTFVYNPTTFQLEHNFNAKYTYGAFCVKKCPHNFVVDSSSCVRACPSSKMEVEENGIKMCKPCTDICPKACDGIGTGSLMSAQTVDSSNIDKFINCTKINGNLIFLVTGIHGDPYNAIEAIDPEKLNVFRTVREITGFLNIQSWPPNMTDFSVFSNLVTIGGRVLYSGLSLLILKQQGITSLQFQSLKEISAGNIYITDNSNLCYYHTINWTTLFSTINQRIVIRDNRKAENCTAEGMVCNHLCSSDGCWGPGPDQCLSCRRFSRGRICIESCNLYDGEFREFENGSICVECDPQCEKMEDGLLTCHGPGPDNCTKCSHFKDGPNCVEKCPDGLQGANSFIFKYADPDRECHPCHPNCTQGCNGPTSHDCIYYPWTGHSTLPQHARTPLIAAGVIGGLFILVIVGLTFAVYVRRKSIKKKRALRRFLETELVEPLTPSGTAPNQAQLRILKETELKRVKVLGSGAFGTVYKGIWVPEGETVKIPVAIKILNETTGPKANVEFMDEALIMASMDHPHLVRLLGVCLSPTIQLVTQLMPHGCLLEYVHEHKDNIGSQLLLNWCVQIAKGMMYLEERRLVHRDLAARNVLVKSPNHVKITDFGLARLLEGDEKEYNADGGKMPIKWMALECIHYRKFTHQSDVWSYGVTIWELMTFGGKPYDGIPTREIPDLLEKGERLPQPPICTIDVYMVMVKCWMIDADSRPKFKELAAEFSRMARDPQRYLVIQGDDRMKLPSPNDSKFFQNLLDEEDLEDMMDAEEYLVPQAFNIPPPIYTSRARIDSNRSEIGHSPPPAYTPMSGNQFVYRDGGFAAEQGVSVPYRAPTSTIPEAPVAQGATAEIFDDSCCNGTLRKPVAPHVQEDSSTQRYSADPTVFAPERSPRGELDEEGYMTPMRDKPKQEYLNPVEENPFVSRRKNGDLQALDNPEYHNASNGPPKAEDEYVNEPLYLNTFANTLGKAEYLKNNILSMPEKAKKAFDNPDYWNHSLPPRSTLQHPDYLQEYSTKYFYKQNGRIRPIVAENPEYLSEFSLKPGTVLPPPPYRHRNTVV
Hepatocyte growth factor receptor, sequence (P08581 whole entry, the tested form may be a part): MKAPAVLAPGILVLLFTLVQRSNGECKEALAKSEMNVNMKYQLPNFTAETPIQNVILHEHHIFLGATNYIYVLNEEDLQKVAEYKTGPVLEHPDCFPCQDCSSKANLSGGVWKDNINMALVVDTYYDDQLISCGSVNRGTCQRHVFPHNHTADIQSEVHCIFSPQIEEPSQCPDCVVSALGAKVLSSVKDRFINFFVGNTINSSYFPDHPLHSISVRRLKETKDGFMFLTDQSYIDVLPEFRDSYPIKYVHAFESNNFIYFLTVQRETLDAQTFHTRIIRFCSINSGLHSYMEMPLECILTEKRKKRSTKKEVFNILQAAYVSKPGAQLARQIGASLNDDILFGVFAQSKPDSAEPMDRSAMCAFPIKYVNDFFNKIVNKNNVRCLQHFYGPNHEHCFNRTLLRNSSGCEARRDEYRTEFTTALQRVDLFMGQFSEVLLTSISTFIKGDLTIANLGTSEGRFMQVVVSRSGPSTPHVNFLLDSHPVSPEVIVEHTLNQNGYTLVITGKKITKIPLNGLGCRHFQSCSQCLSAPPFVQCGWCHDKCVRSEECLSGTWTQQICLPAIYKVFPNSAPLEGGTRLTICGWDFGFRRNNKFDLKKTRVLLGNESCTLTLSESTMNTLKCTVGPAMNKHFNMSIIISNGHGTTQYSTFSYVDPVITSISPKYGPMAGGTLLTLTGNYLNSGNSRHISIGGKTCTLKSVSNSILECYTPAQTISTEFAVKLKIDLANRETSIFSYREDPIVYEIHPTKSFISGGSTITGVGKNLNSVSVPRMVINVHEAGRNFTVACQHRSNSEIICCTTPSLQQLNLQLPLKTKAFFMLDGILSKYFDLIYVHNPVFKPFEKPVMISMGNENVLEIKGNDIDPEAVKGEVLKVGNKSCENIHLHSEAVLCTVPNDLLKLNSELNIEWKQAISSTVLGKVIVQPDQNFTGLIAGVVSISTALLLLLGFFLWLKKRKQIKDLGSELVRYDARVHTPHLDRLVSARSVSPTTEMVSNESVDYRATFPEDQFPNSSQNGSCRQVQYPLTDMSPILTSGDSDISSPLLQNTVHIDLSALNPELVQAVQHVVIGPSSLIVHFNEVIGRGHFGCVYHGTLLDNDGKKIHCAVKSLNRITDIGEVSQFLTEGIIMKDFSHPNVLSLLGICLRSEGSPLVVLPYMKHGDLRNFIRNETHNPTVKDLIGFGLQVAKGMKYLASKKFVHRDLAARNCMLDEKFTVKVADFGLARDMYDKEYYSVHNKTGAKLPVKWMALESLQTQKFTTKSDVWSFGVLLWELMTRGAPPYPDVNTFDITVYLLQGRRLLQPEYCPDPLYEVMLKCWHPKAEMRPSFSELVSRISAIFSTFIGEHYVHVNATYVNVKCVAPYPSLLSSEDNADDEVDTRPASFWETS
Fibroblast growth factor receptor 1, sequence (P11362 22-822 limits assumed): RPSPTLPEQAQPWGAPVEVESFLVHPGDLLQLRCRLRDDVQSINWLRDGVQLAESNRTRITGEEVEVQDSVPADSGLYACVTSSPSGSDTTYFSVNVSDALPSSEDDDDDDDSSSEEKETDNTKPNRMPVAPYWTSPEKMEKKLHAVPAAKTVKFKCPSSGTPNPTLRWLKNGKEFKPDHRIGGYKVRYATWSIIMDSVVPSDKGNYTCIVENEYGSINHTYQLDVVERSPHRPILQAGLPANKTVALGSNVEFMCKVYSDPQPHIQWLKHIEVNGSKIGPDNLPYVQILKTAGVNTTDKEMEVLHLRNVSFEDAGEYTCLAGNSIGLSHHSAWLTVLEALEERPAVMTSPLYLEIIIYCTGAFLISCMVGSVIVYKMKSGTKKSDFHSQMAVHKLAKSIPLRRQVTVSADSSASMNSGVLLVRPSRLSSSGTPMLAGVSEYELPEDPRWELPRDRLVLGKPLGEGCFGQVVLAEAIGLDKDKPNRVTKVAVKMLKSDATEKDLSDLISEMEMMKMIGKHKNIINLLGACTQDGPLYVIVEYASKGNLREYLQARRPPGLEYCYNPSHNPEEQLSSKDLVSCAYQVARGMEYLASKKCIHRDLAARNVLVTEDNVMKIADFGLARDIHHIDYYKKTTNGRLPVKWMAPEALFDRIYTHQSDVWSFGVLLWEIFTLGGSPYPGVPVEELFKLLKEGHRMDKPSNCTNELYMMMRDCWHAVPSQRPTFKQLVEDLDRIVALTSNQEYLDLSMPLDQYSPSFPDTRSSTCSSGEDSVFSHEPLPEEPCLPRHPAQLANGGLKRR

COCCN1CCC(c2cc(CN(C)C(=O)c3cccc(Oc4ccccc4)c3)ccn2)CC1
IC50 [1]: > 10 µM

CCC(=O)N1CCN(c2ccc(-n3c(=O)ccc4cnc5ccc(-c6cnc7ccccc7c6)cc5c43)cc2C(F)(F)F)CC1
% of control [2]: 100%

Nc1cnc(N2CCc3cc(S(=O)(=O)Nc4c(F)cc(Cl)cc4F)cc(N4CCCC4=O)c32)nc1 [TP-020n]
% of control [3]: 100%

Cc1cc([C@@H](C)Nc2ccccc2C(=O)O)c2nc(N3CCOCC3)cc(=O)n2c1 [AZD-6482]
% of control [4]: 89%

Cn1cc(-n2cnc3c(NCc4nc5cc(Cl)c(Cl)cc5[nH]4)nc(N4CCOCC4)nc32)cn1
% of inhibition [5]: -31.5%
% of inhibition [6]: -36.5%

O[C@H]1CC[C@H](Nc2ncc3nc(Nc4c(F)cc(F)cc4F)n([C@H]4CCOC4)c3n2)CC1
% of control [7]: 100%

Cc1cnc(Nc2ccc(F)cc2Cl)nc1-c1c[nH]c(C(=O)N[C@H](CO)c2cccc(Cl)c2)c1
% of inhibition [8]: 7%
